Data as given in publication PMC6915728 (Nature Communications, 2019).

Assays:
[1] = tested on: E. coli essential gene hypomorphic alleles; test: Chemical-genetic screen of 279 essential gene hypomorphs on high-density agar plates (AMPs and antibiotics); type: cell-based, Escherichia coli; conditions: folA hypomorphic allele, sub-inhibitory AMP (50% growth inhibition of wild type), 32 °C, 20 h
From the text: Chemical-genetic profiling based on gene depletion captures a different aspect of resistance determinants than gene overexpression. […] To investigate the intrinsic AMP resistome, we initiated a chemical-genetic screen with a set of 279 partially depleted essential genes (hypomorphic alleles; see Methods) of E. coli. […] Then, using a well-established high-density agar plate assay[19],[33], we determined their chemical-genetic interaction profiles across the hypomorphic alleles (Supplementary Data 5). […]
Analogous to our E. coli synthetic genetic array approach, our chemical-genetics screening strategy involves robotic pinning of each Kan^R marked single essential gene hypomorph arrayed in 384 colony format on Luria Broth (LB) medium, in quadruplicate, onto the minimal medium containing AMPs under a selected concentration, in two replicates, generating eight replicates in total for each essential gene hypomorph. […] The normalized colony sizes from the AMP plate was subtracted from their corresponding colony screened without AMP to estimate the final hypomorphic-strain fitness score (sensitive or resistant), which is as an average of all eight replicate measurements recorded for each hypomorphic allele. A z-score distribution based p-value was calculated for all interactions and those with p ≤ 0.05 were deemed as significant interactions. […]

[2] = tested on: E. coli; conditions: previous laboratory evolution experiment; cited from earlier work
From the text: The results presented in this study may have important implications for the development of AMP-based therapies. Previous works reported several instances of cross-resistance interactions between membrane-targeting peptides (Supplementary Data 1), however, the potential for cross-resistance across AMPs with different modes of action has remained poorly understood. Specifically, while cross-resistance between host and therapeutic AMPs is certainly a realistic danger, not all AMPs are equally prone to cross-resistance. Given the immense diversity of AMPs with major differences in physicochemical ...

Row | Sequence | Effect of folA depletion on susceptibility [1] | Emergence of resistant lines in laboratory evolution [2]
1 | RRRPRPPYLPRPRPPPFFPPRLPPRIPPGFPPRFPPRFP [PR39, PR-39, cathelicidin, source pig; cluster C4] | sensitivity | –
2 | RWCFRVCYRGICYRKCR [TPII, Tachyplesin II, antimicrobial peptide from Japanese horseshoe crab; disrupts cell membrane; cluster C1] | – | did not result in any significant resistant lines
